Results published in patent US5216005A, “Immunosuppressive analogues and derivatives of succinylacetone” (priority 1990, dated 1993).
Read-outs that look alike come from different tables or passages of the source.

Tested on: human lymphocytes
Assay: phytohemagglutinin (PHA) stimulation assay, tritiated thymidine uptake
Assay type: cell-based
Conditions: for IC50: Homo sapiens, Lymphocyte
Experimental: A second assay widely used to study immune responsiveness is mitogenic stimulation of thymocytes with antigenic substances of plant origin. The most widely used plant molecule is phytohemagglutinin (PHA).
The procedure for carrying out the phytohaemagglutinin assay is also well known to those skilled in the art. Briefly, it consists of isolating human lymphocytes as described above, and incubating about 1.0×10^6 cells per ml in a suitable physiological solution with phytohaemagglutinin, and the appropriate concentration of succinylacetone-proline-NH-PEG. Tritiated thymidine is added 48 hours later and allowed to incubate for twenty-four hours before the cells are counted.

Row | Structure (SMILES) | PHA stimulation, cpm ± SD (first experiment, 3.8 μM) [cpm] | PHA stimulation, cpm ± SD (first experiment, 11 μM) [cpm] | PHA stimulation, cpm ± SD (first experiment, 34 μM) [cpm] | PHA stimulation, cpm ± SD (first experiment, 103 μM) [cpm] | PHA stimulation, cpm ± SD (first experiment, 309 μM) [cpm] | PHA stimulation, cpm ± SD (first experiment, 2.8 mM) [cpm] | PHA stimulation, cpm ± SD (first experiment, 25 mM) [cpm] | PHA stimulation, cpm ± SD (first experiment, 83 mM) [cpm] | PHA stimulation, cpm ± SD (second experiment, 3.8 μM) [cpm] | PHA stimulation, cpm ± SD (second experiment, 11 μM) [cpm] | PHA stimulation, cpm ± SD (second experiment, 34 μM) [cpm] | PHA stimulation, cpm ± SD (second experiment, 103 μM) [cpm] | PHA stimulation, cpm ± SD (second experiment, 309 μM) [cpm] | PHA stimulation, cpm ± SD (second experiment, 2.8 mM) [cpm] | PHA stimulation, cpm ± SD (second experiment, 25 mM) [cpm] | PHA stimulation, cpm ± SD (second experiment, 83 mM) [cpm] | further results
1 | COC(=O)CCC(C(C)=O)C(C)=O [Methyl 4-Acetyl-5-Oxohexanoate, methyl 4-acetyl-5-oxohexanoate] | 19888 | 19401 | 19399 | 18677 | 14098 | 116 | 200 | 192 | 33799 | 33417 | 34006 | 30569 | 19713 | 717 | 200 | 156 | IC50 (both assays (two individuals), read-out: concentration causing about 50% inhibition in PHA stimulation): ~309 µM; PHA stimulation, cpm ± SD (first experiment, 926 μM): 2776 cpm; PHA stimulation, cpm ± SD (second experiment, 926 μM): 5600 cpm
2 | COC(=O)CCC(=O)CC(C)=O [Succinylacetone Methyl Ester, methyl 4-6-dioxoheptanoate] | 20292 | 18100 | 16549 | 17595 | 5927 | 126 | 113 | 79 | 37936 | 28645 | 28614 | 17733 | 5292 | 65 | 112 | 107 | IC50 (one assay, read-out: concentration causing 50% inhibition of PHA stimulation): 103 to 309 µM; IC50 (second assay, read-out: concentration causing 50% inhibition of PHA stimulation): ~103 µM; PHA stimulation, cpm ± SD (first experiment, 962 μM): 565 cpm; PHA stimulation, cpm ± SD (second experiment, 962 μM): 6949 cpm
